Measurements from patent US20230232827A1, “METHOD FOR C[…] RUST FUNGUS RESISTANT TO QoI FUNGICIDES” (SUMITOMO CHEMICAL COMPANY, LIMITED, priority 2020, published 2023).

Test system: soybean rust fungus (Phakopsora pachyrhizi) having an amino acid substitution of F129L in a mitochondrial cytochrome b protein
Assay: Leaf disc test of control of soybean rust (lesion area) after spraying the test compound
Type: in vivo
Settings: Comparative Test Example 1, according to Test Example 1
Protocol: A true leaf of a soybean (cultivar: Kurosengoku) was cut into a diameter of 1 cm to prepare each leaf disc. To each well of a 24 well microplate was dispensed 1 mL of an agar medium (agar concentration 1.2%), and then one of said leaf disc was placed on each well. To a mixture of Sorpol (registered trademark) 1200KX (0.5 μL), DMSO (4.5 μL), and xylene (5 μL) was added a DMSO solution (20 μL) comprising a test compound (10000 ppm), and the resulting mixture was mixed. The resulting mixture was diluted with ion exchange water to prepare a spray solution comprising a prescribed concentration of the test compound. Said spray solution was sprayed into each leaf disc at a ratio of 10 μL per leaf disc. After 1 day, an aqueous suspension of spores of soybean rust fungus (Phakopsora pachyrhizi) having an amino acid substitution of F129L in a mitochondrial cytochrome b protein (1.0×10^5/mL) was inoculated by spraying on each leaf disc. After the inoculation, the microplate was placed into an artificial climate chamber (Lighting: 6 hours, Lights-out: 18 hours, Temperature: 23° C., Humidity: 60%). After 1 day, the leaf discs were air-dried until water droplets on the surfaces of the leaf discs disappeared, and the microplate was placed into the artificial climate chamber again for 12 days. Then, lesion area of soybean rust was investigated. As a result, when the prescribed concentration was 50 ppm, each lesion area of leaf disc treated with any one of the Present compound 2 to 13, 15 to 30, 33 to 40, 42 to 49, 52 to 56, 58, 60, 65, 66, or 74 to 79 as the test compound was 30% or less relative to the lesion area of non-treated leaf disc. Here, the term of “non-treated” means that a spray solution comprising a test compound was not sprayed into a leaf disc.
Each test is carried out according to the Test Example 1 by using any one of the Present compound S as the test compound with a prescribed concentration of 12.5 ppm. As a result, control effects on soybean rust can be confirmed in the leaf discs treated with test compounds.
Each test is carried out according to the Test Example 1 by using any one of the Present compound S as the test compound with a prescribed concentration of 3.1 ppm. As a result, control effects on soybean rust can be confirmed in the leaf discs treated with test compounds.
Each test was carried out according to the Test Example 1 by using the Present compound 4, 3, 11, or 42, or azoxystrobin, dimoxystrobin, or metominostrobin as the test compound with a prescribed concentration of 50 ppm.

With `CO/C=C(/C(=O)OC)c1ccccc1Oc1cc(Oc2ccccc2C#N)ncn1` [Azoxystrobin, reference compound] the “Lesion area (%) at the concentration of 50 ppm” value (“Lesion area (%)” below) was 100%.

`CNC(=O)/C(=N/OC)c1ccccc1COc1cc(C)ccc1C` [Dimoxystrobin, reference compound] was tested, and the “Lesion area (%)” value was 100%.

In the case of `CNC(=O)/C(=N/OC)c1ccccc1Oc1ccccc1` [Metominostrobin, reference compound], the “Lesion area (%)” value is reported as 100%.

For `CO/C=C(/C(=O)OC)n1ncc2ccc(-c3ccccc3)cc21` [Present compound 3], the “Lesion area (%)” value was 0%.

In the case of `CO/C=C(/C(=O)OC)n1c2ccccc2c2ccc(Br)cc21` [Present compound 4], the “Lesion area (%)” value is reported as 0%.

With `CO/C=C(/C(=O)OC)n1ccc2ccc(C#CC3CC3)cc21` [Present compound 11] the “Lesion area (%)” value was 0%.

`CO/C=C(/C(=O)OC)n1ccc2ccc(/C(C)=N/OC)cc21` [Present compound 42] was tested, and the “Lesion area (%)” value was 0%.
